Assay results taken from US20140066498A1, “TRITERPENOID DERIVATIVES, BENZENOID DERIVATIVES, AND PHARMACEUTICAL COMPOSITIONS CONTAINING THE SAME” (National Cheng Kung University, priority 2010, published 2014).
≈ marks a conversion by molar mass, not a printed value. Like-named read-outs stand apart in the source and are kept apart here.

Experiments:
[1] = tested on: KB-VIN (multidrug-resistant strain); assay: Cytotoxicity assay against KB-VIN cells in vitro; assay type: cell-based, human
[2] = molecular target: T1, nitric oxide synthase (NOS) (Mus musculus, UniProt P29477); assay: NOS activity: LPS-induced NO production in murine microglial cells (BV2)
T1 sequence (P29477 1-1144): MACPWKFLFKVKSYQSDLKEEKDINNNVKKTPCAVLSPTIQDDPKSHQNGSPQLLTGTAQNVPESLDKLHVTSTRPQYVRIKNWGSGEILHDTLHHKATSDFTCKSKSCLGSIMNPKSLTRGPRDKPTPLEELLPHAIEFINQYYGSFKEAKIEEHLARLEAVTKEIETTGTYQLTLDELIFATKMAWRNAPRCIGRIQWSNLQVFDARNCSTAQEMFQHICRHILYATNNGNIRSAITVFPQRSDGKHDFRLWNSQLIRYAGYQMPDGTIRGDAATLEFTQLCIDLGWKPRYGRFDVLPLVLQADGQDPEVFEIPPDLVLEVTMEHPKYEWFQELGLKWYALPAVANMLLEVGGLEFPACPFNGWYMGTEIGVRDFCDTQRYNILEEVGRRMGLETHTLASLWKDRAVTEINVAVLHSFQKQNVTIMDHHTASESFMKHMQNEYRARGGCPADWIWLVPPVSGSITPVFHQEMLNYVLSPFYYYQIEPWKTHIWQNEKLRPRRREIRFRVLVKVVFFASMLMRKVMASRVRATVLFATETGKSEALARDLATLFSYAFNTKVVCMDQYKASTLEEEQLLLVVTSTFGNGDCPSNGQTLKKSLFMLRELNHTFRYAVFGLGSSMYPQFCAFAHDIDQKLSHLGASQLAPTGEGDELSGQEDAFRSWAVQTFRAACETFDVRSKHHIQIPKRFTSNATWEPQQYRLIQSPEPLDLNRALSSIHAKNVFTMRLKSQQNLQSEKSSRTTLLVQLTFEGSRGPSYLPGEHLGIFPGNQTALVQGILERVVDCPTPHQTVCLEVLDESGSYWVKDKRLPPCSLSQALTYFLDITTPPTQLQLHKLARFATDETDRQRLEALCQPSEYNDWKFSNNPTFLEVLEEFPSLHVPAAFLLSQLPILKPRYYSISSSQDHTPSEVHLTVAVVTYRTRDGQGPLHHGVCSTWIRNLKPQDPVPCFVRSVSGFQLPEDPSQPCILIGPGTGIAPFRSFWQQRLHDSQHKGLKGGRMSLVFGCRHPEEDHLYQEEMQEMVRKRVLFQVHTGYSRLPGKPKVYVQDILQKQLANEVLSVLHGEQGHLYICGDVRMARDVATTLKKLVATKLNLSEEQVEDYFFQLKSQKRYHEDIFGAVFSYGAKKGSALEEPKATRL
Procedure: Microglial cell culture and measurements of mitric oxide (NO). The murine microglial cell line (BV2) was cultured, and the production of NO was measured by the methods as previously described (Wang, Y. H.; Wang, W. Y.; Chang, C. C.; Liou, K. T.; Sung, Y. J.; Liao, J. F.; Chen, C. F.; Chang, S.; Hou, Y. C.; Chou, Y. C.; Shen, Y. C. J. Biomed. Sci. 2006, 13, 127-141).

[3] = tested on: Daoy (human medulloblastoma); assay: MTT cytotoxicity assay, Daoy; assay type: cell-based; conditions: Daoy cell line
Procedure: (§1) Compounds II-7-II-9, II-13, II-14, II-20, II-21, II-25-II-33, and II-36 were assayed for cytotoxic activity against Doay (human medulloblastoma), Hep2 (human laryngeal carcinoma), MCF-7 (human breast adenocarcinoma), and Hela (human cervical epitheloid carcinoma) cell lines, using a MTT assay method.

[4] = tested on: Hela (human cervical epitheloid carcinoma); assay: MTT cytotoxicity assay, Hela; assay type: cell-based; conditions: Hela cell line
Procedure: as §1

[5] = tested on: Hep2 (human laryngeal carcinoma); assay: MTT cytotoxicity assay, Hep2; assay type: cell-based; conditions: Hep2 cell line
Procedure: as §1

[6] = tested on: MCF-7 (human breast adenocarcinoma); assay: MTT cytotoxicity assay, MCF-7; assay type: cell-based; conditions: MCF-7 cell line
Procedure: as §1

[7] = tested on: KB (human cancer cell); assay: Cytotoxicity assay against KB cells in vitro; assay type: cell-based; conditions: NA@20 given for inactive
[8] = molecular target: NADPH oxidase (NOX) (Homo sapiens, UniProt P04839); assay type: cell-based; conditions: ROS production triggered with fMLP (2 μM), 1-50 μM test drug, peripheral human neutrophils; mean ± S.E.M.; read-out: IC50 (μM) in NOX fMLP-induced NOX activation in PMN
[9] = molecular target: NADPH oxidase (NOX) (Mus musculus, UniProt Q61093); assay type: biochemical, murine; conditions: ROS production triggered with NADPH (200 μM), 1-50 μM test drug, BV2 cell lysate; mean ± S.E.M., 3-6 experiments; read-out: IC50 (μM) in NOX activity from BV2 cell lysate
[10] = read-out: IC50 (μM) in NOS, LPS-induced NO production in BV2 cells, 1-50 μM test drug, mean ± S.E.M.

Molecule: C=C(CC[C@@H](C)C1CCC2C3=C(C(=O)C[C@@]21C)[C@@]1(C)CCC(O)[C@@H](C)C1CC3O)C(C)C(=O)O (stereo in doubt) [Compound I-2, 3α,7β-dihydroxy-11-oxo-4α-methylergosta-8,24(28)-dien-26-oic acid]
- EC50 (μM) KB-VIN [1]: NA@20
- IC50 [2]: 15.7 ± 0.9 µM

Molecule: C=C(CC[C@@H](C)C1CCC2C3=C(C(=O)C[C@@]21C)[C@@]1(C)CCC(O)[C@@H](C)C1CC3=O)C(C)C(=O)OC (stereo in doubt) [Compound I-5, methyl-3α-hydroxy-7,11-dioxo-4α-methylergosta-8,24(28)-dien-26-oate]
- ED50 (μg/mL) Daoy [3]: 5.2 µg/mL (≈ 10.7 µM)
- EC50 ([1]; Homo sapiens, KBVIN): 2.7 µM
- ED50 (μg/mL) Hela [4]: 9.0 µg/mL (≈ 18.6 µM)
- ED50 (μg/mL) Hep2 [5]: 7.0 µg/mL (≈ 14.4 µM)
- ED50 (μg/mL) MCF-7 [6]: 6.6 µg/mL (≈ 13.6 µM)
- EC50 ([7]; Homo sapiens): 0.45 µM

Molecule: C=C(CC[C@@H](C)C1CCC2C3=C(C(=O)C[C@@]21C)[C@@]1(C)CCC(=O)[C@@H](C)C1CC3O)C(C)C(=O)OC (stereo in doubt) [Compound I-6, methyl-7β-hydroxy-3,11-dioxo-4α-methylergosta-8,24(28)-dien-26-oate]
- ED50 (μg/mL) Daoy [3]: 4.4 µg/mL (≈ 9.08 µM)
- EC50 ([1]; Homo sapiens, KBVIN): 2.9 µM
- ED50 (μg/mL) Hela [4]: 8.9 µg/mL (≈ 18.4 µM)
- melting point: 100 to 101 °C
- ED50 (μg/mL) Hep2 [5]: 3.0 µg/mL (≈ 6.19 µM)
- ED50 (μg/mL) MCF-7 [6]: 7.9 µg/mL (≈ 16.3 µM)
- IC50 [2]: 2.5 µM
- EC50 ([7]; Homo sapiens): 2 µM

Molecule: C=C(CC[C@@H](C)C1CCC2C3=C(C(=O)C[C@@]21C)[C@@]1(C)CCC(=O)[C@@H](C)C1CC3O)C(C)C(=O)O (stereo in doubt) [Compound I-7, 7α-hydroxy-3,11-dioxo-4α-methylergosta-8,24(28)-dien-26-oic acid]
- EC50 ([1]; Homo sapiens, KBVIN): 17.5 µM
- EC50 ([7]; Homo sapiens): 15 µM

Molecule: C=C(CC[C@@H](C)C1CCC2C3=C(C(=O)[C@H](O)[C@@]21C)[C@@]1(C)CC[C@@H](O)[C@@H](C)C1C[C@H]3O)C(C)C(=O)O (stereo partly drawn) [Compound I-1, 3α,7β,11α-trihydroxy-11-oxo-4α-methylergosta-8,24(28)-dien-26-oic acid]
- EC50 (μM) KB-VIN [1]: NA@20
- melting point: 117 to 119 °C
- EC50 (μM) KB [7]: NA@20

Molecule: C=C(CC[C@@H](C)C1CCC2C3=C(C(=O)C[C@@]21C)[C@@]1(C)CC[C@@H](O)[C@](C)(O)C1CC3=O)C(C)C(=O)O (stereo partly drawn) [Compound I-3, 3α,4β-dihydroxy-7,11-dioxo-4α-methylergosta-8,24(28)-dien-26-oic acid]
- EC50 ([1]; Homo sapiens, KBVIN): 2.3 µM
- melting point: 186 to 188 °C
- EC50 ([7]; Homo sapiens): 0.3 µM

Molecule: C=C(CC[C@@H](C)[C@H]1CC[C@@]2(O)C3=C(C(=O)C[C@]12C)[C@@]1(C)CCC(=O)[C@@H](C)C1C[C@@H]3O)C(C)C(=O)O (stereo partly drawn) [Compound I-4, 7β,14α-dihydroxy-3,11-dioxo-4α-methylergosta-8,24(28)-dien-26-oic acid]
- EC50 ([1]; Homo sapiens, KBVIN): 1.4 µM
- melting point: 175 to 177 °C
- EC50 ([7]; Homo sapiens): 1 µM

Molecule: C=C(CC[C@@H](C)[C@H]1CC[C@H]2C3=C(C(=O)C[C@]12C)[C@@]1(C)CCC(=O)[C@@H](C)C1CC3)C(C)C (stereo partly drawn) [Compound I-8, 4α-methylergosta-8,24(28)-dien-3,11-dione]
- EC50 (μM) KB-VIN [1]: NA@20
- EC50 (μM) KB [7]: NA@20

Molecule: C[C@H](C=C[C@H](C)[C@H](C)CO)[C@H]1CC[C@H]2C3=CCC4CC(=O)CC[C@]4(C)[C@H]3CC[C@]12C (stereo partly drawn) [Compound I-9, (25S)-26-hydroxy-ergosta-7,22-dien-3-one]
- EC50 (μM) KB-VIN [1]: NA@20
- melting point: 192 to 193 °C
- IC50 [2]: 12.7 ± 2.2 µM
- EC50 (μM) KB [7]: NA@20

Molecule: C=C(CC[C@@H](C)[C@H]1CC[C@@H]2C3=C(C(=O)C[C@@]21C)[C@@]1(C)CCC(=O)[C@@H](C)C1CC3)C(C)C(=O)OC (stereo partly drawn) [Compound I-10, methyl-3,11-dioxo-4α-methyl-14β-ergosta-8,24(28)-dien-26-oate]
- ED50 (μg/mL) Daoy [3]: —^a (ED50 > 20 μg/mL)
- EC50 (μM) KB-VIN [1]: NA@20
- ED50 (μg/mL) Hela [4]: 11.3 µg/mL (≈ 24.1 µM)
- melting point: 100 to 102 °C
- ED50 (μg/mL) Hep2 [5]: — (ED50 > 20 μg/mL)
- ED50 (μg/mL) MCF-7 [6]: 8.7 µg/mL (≈ 18.6 µM)
- IC50 [2]: 1.6 µM
- EC50 (μM) KB [7]: NA@20

Molecule: C=C(CC[C@@H](C)[C@H]1CC[C@H]2C3=C(C(=O)C[C@]12C)[C@@]1(C)CCC(=O)[C@@H](C)[C@@H]1CC3=O)C(C)C(=O)O (stereo partly shown) [Compound I-11, zhankuic acid A]
- IC50 [8]: 22.1 ± 6.7 µM
- ED50 (μg/mL) Daoy [3]: — (ED50 > 20 μg/mL)
- EC50 [1]: 6.2 µM
- ED50 (μg/mL) Hela [4]: — (ED50 > 20 μg/mL)
- ED50 (μg/mL) Hep2 [5]: 16.6 µg/mL (≈ 35.4 µM)
- ED50 (μg/mL) MCF-7 [6]: — (ED50 > 20 μg/mL)
- IC50 [2, 10]: 3.6 µM
- EC50 [7]: 3 µM

Molecule: C=C(CC[C@@H](C)[C@H]1CC[C@H]2C3=C(C(=O)C[C@]12C)[C@@]1(C)CC[C@@H](O)[C@@H](C)[C@@H]1CC3=O)C(C)C(=O)O (stereo partly shown) [Compound I-12, zhankuic acid B]
- EC50 [1]: 8.5 µM
- IC50 [2, 10]: 9.6 ± 0.7 µM
- EC50 [7]: 7.3 µM

Molecule: C=C(CC[C@@H](C)[C@H]1CC[C@H]2C3=C(C(=O)C[C@]12C)[C@@]1(C)CCC(=O)[C@@H](C)[C@@H]1CC3=O)C(C)C(=O)OC (stereo partly shown) [Compound I-14, zhankuic acid A methyl ester]
- IC50 [8]: 8.4 ± 2.1 µM
- EC50 [1]: > 20 µM
- IC50 [2, 10]: 0.6 µM
- EC50 [7]: > 20 µM

Molecule: C=C(CC[C@@H](C)[C@H]1CC[C@H]2C3=C(C(=O)C[C@]12C)[C@@]1(C)CCC(=O)[C@@H](C)[C@@H]1C[C@@H]3O)[C@H](C)C(=O)O [Compound I-16, antcin C]
- IC50 [8]: 22.6 ± 3.3 µM
- EC50 (μM) KB-VIN [1]: NA@20
- IC50 [2, 10]: 4.2 µM
- EC50 (μM) KB [7]: NA@20

Molecule: C=C(CC[C@@H](C)[C@H]1CC[C@H]2C3=C(C(=O)C[C@]12C)[C@@]1(C)CC[C@@H](O)[C@](C)(O)[C@@H]1C[C@@H]3O)C(C)C(=O)O (stereo partly shown) [Compound I-17, antcin K]
- IC50 [8]: 47.2 ± 8.4 µM
- EC50 (μM) KB-VIN [1]: NA@20
- EC50 (μM) KB [7]: NA@20

Molecule: CC(C)[C@@H](C)/C=C/[C@@H](C)[C@H]1CC[C@H]2C3=CC[C@H]4C[C@@H](O)CC[C@]4(C)C3=CC[C@]12C [Compound I-20, ergosterol D]
- IC50 [8]: 27.9 ± 5.6 µM
- IC50 [2, 10]: 30.6 ± 0.8 µM

Molecule: C=C(CC[C@@H](C)[C@H]1CC[C@H]2C3=C(C(=O)C[C@]12C)[C@@]1(C)CCC(=O)[C@@H](C)C1CC3)C(C)C(=O)OC (stereo partly drawn) [Compound I-21, methyl 4α-methylergost-8,24(28)-dien-3,11-dion-26-oate]
- IC50 [2]: 1.5 µM

Molecule: CC(C)[C@@H](C)/C=C/[C@@H](C)[C@H]1CC[C@@H]2[C@]1(C)CC[C@H]1[C@]23C=C[C@]2(C[C@@H](O)CC[C@]12C)OO3 [Compound I-22, ergosterol peroxide]
- IC50 [2, 10]: 6.3 ± 1.8 µM

Molecule: c1ccc2c(c1)[I+]c1ccccc1-2 [DPI, Diphenyleneiodonium, reference compound]
- IC50 [9]: 0.4 µM

Molecule: C=C(C)C#Cc1c(C)c(OC)c(OC)c2c1OCO2 [II-2]
- IC50 [2, 10]: 12.1 µM

Molecule: COc1c(C)c(-c2c(C)c(OC)c3c(c2OC)OCO3)c(OC)c2c1OCO2 [II-7, 2,2′,5,5′-tetra-methoxy-3,4,3′,4′-bi-methylenedioxy-6,6′-dimethylbiphenyl]
- IC50 [2, 10]: 16.2 ± 1.4 µM

Molecule: COc1cc(C)c(OC)c2c1OCO2 [II-8, 4,7-dimethoxy-5-methyl-1,3-benzodioxole]
- IC50 [2, 10]: 29.1 ± 4.4 µM

Molecule: eburicol [Compound I-19]
- EC50 [1]: > 20 µM
- EC50 [7]: > 20 µM
